# Reference: PMC5329131 (Biochimica et biophysica acta, 2017)
# Where no end group is shown, it is not given here.
# Columns and labels:
# SR Ca2+ release (RyR1) = details: ref Xiao et al., 2016; cited from earlier work
# [1] = test system: rabbit skeletal heavy SR vesicles (RyR1); experiment: Ca2+ release from heavy SR vesicles; type: biochemical; details: for Ca2+ release by vesicles (quality control): response to caffeine, 4-cmc and A23187; for Ca2+ release by RyR agonists vs A23187: same vesicles, data not shown
# [2] = target: RyR1 (Oryctolagus cuniculus) (UniProt P11716); experiment: [3H]ryanodine binding; details: cited from earlier work
# UniProt P11716, sequence (P11716 whole entry): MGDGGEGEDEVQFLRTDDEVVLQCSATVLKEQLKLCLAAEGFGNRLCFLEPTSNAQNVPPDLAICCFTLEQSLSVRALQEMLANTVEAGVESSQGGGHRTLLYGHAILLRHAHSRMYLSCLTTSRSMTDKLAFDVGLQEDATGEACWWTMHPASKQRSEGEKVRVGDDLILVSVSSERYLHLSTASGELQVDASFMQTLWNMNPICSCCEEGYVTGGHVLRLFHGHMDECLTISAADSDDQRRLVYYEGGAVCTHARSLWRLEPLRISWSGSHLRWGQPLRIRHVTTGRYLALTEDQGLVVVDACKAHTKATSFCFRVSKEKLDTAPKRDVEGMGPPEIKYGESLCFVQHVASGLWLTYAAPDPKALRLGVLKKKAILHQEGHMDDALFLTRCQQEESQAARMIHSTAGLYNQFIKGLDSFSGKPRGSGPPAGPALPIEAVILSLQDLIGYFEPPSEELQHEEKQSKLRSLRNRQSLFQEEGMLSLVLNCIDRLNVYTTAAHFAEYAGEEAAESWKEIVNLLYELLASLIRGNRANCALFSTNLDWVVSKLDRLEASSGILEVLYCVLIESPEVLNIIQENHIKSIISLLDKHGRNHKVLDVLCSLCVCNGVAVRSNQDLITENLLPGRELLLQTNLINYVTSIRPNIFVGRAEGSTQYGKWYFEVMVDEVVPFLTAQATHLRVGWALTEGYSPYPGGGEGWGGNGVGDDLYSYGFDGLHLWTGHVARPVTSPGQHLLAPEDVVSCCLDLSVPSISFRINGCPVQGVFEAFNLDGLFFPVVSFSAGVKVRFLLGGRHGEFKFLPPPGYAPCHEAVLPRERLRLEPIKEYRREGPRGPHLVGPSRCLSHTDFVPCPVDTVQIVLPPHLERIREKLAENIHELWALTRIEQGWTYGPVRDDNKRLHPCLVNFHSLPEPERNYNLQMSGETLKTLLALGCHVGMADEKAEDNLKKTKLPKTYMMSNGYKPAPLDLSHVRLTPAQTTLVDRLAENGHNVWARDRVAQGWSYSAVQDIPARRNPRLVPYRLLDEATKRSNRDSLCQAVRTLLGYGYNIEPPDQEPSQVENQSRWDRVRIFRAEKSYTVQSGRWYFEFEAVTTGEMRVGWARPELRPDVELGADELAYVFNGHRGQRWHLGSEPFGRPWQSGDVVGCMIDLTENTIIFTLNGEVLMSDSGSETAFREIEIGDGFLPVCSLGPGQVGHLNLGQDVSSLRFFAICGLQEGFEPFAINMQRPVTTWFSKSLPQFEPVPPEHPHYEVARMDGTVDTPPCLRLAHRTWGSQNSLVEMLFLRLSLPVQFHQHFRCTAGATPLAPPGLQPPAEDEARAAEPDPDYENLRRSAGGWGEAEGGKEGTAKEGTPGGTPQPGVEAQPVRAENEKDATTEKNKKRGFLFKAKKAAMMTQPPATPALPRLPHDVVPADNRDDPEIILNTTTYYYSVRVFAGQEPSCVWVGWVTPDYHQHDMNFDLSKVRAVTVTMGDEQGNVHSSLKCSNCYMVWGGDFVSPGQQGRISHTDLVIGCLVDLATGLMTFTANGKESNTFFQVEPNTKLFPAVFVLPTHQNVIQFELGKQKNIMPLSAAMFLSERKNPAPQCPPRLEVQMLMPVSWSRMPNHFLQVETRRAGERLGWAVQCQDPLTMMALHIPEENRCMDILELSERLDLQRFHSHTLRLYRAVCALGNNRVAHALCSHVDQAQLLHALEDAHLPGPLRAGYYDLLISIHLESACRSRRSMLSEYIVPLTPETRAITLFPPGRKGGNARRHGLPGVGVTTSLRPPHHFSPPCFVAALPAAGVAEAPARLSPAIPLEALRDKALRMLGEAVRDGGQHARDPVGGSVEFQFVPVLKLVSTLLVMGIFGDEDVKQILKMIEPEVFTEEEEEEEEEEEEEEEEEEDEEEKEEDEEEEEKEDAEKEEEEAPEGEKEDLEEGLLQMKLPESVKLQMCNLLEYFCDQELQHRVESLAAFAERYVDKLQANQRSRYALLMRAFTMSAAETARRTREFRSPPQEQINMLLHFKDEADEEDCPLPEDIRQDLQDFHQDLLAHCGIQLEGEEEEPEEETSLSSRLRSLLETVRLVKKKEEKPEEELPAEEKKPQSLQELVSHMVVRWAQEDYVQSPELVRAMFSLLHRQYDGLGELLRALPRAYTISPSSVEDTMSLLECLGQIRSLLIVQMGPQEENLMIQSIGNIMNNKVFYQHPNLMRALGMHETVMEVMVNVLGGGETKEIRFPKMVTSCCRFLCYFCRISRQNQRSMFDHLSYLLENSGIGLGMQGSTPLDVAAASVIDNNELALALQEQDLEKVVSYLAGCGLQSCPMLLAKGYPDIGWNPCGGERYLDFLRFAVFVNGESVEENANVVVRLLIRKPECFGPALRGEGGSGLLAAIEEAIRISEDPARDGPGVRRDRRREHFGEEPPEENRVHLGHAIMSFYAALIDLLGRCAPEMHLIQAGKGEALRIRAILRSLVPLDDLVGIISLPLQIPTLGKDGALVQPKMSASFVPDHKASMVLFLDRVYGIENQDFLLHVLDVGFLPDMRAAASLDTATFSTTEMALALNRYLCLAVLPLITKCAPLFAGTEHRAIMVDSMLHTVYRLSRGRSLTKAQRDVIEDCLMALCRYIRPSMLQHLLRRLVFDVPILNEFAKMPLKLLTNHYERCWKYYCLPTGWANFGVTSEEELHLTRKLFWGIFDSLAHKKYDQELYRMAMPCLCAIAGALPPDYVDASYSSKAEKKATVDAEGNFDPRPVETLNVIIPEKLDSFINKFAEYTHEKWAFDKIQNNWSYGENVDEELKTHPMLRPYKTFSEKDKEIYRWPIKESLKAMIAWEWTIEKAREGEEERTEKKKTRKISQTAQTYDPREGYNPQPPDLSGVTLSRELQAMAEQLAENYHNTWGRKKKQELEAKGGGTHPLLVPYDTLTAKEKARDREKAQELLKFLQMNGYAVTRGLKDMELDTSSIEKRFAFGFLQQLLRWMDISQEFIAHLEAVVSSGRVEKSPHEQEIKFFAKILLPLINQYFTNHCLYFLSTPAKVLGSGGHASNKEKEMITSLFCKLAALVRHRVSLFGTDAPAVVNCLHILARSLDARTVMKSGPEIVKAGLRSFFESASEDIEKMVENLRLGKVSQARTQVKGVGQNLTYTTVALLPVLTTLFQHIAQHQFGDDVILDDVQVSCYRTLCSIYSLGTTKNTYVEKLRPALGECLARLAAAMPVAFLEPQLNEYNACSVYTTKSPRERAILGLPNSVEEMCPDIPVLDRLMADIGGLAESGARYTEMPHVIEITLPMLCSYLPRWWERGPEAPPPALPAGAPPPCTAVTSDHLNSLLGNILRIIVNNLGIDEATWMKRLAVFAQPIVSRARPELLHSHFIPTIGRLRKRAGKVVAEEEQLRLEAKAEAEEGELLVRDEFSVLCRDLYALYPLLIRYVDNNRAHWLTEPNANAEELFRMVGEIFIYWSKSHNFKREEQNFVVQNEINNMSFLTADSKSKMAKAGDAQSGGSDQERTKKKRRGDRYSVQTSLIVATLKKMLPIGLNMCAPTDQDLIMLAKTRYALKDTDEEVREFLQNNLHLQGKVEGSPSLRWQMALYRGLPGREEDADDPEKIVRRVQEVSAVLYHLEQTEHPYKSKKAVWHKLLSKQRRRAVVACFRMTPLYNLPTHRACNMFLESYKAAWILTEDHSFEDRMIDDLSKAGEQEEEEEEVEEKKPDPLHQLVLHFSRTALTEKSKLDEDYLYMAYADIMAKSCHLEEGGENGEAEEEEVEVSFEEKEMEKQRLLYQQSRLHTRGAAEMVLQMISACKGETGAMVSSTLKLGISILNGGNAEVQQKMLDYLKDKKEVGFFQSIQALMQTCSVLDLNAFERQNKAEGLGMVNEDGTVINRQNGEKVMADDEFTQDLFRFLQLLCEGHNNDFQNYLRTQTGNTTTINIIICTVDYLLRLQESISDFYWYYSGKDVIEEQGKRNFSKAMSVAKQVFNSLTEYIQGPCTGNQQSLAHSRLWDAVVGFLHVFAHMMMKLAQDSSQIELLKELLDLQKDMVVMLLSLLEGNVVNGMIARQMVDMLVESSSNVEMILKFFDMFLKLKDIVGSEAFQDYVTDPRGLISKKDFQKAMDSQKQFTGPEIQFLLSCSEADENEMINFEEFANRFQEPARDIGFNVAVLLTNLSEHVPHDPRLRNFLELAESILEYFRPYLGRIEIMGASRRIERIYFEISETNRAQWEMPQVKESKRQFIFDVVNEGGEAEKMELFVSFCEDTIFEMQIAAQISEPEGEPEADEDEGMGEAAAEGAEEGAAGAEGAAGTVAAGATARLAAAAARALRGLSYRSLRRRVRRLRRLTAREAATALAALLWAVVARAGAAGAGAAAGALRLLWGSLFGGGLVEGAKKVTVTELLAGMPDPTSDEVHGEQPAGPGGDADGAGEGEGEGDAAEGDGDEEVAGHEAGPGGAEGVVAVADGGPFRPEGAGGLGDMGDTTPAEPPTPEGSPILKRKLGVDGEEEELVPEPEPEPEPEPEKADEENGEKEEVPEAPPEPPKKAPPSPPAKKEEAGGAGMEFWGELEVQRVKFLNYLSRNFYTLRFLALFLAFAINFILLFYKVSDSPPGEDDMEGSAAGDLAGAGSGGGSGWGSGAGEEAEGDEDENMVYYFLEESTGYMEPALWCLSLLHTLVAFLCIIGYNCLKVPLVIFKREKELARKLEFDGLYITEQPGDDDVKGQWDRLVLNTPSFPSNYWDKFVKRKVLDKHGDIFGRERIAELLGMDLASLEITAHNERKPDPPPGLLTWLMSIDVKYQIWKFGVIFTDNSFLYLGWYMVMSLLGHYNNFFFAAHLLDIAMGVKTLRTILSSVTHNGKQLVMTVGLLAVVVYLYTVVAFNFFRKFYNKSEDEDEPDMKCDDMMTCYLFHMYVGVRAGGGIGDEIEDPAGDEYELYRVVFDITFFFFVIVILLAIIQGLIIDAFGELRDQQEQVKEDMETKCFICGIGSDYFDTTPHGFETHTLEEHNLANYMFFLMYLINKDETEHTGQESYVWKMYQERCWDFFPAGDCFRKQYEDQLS
# RyRs = details: cited from earlier work
# RyR1 = details: alanine scanning of Imperacalcin; ref Lee et al., 2004; cited from earlier work
molecule,measurement,setting,value
"Opicalcin2: calcin from Opistophthalmus carinatus, UniProt P60253 (GDCLPHLKRCKENNDCCSKKCKRRGANPEKRCR; ends and bridges not checked; cysteine pairing not given here; UniProt P60253 34-66, looked up)",binding affinity vs ability to stimulate Ca2+ release,SR Ca2+ release (RyR1),strong binding affinity but weaker ability to stimulate Ca^2+ release
"Cn1c(=O)c2c(ncn2C)n(C)c1=O [Caffeine, caffeine]",Ca2+ release by vesicles (quality control),[1],equivalent amount of Ca^2+
same,Ca2+ release by RyR agonists vs A23187,[1],release roughly equivalent levels of Ca^2+ in these vesicles as that emptied by A23187
Opicalcin1 (from UniProt P60252),Kd,[2],0.3 nM
CNc1ccc2oc(C[C@H]3O[C@@]4(CC[C@H]3C)O[C@H]([C@H](C)C(=O)c3ccc[nH]3)[C@H](C)C[C@H]4C)nc2c1C(=O)O [A23187],Ca2+ release by vesicles (quality control),[1],equivalent amount of Ca^2+
Opicalcin2 (from UniProt P60253),Kd,[2],3.2 nM
Hemicalcin (from UniProt A0A1L4BJ42),Kd,[2],6.9 nM
Imperacalcin (from UniProt P59868),Kd,[2],8.7 nM
Maurocalcin (from UniProt P60254),Kd,[2],26.4 nM
"Imperacalcin: 33-amino acid calcin from Pandinus imperator, UniProt P59868 (GDCLPHLKRCKADNDCCGKKCKRRGTNAEKRCR; ends and bridges not checked; cysteine pairing not given here; UniProt P59868 1-33, looked up)",binding site by single RyR1 channel analysis,"RyRs; ref Tripathy et al., 1998",enters the channel vestibule and binds to a single site located within the ion conduction pathway and close to the voltage drop of the channel
same,effect on RyR gating,RyRs; ref not given,increases their activity by inducing the appearance of a long-lived subconductance state
Urocalcin (from UniProt L0GBR1),Kd,[2],376 nM
"N14A: alanine-scanning mutant N14A of Imperacalcin (GDCLPHLKRCKADADCCGKKCKRRGTNAEKRCR; ends and bridges not checked; cysteine pairing not given here; UniProt P59868 1-33, looked up, variant N14A)",influence of mutation on binding affinity,RyR1,almost no influence on binding affinity
Vejocalcin (from UniProt P0DPT1),Kd,[2],3.7 nM
Cc1cc(O)ccc1Cl [4-cmc],Ca2+ release by vesicles (quality control),[1],equivalent amount of Ca^2+
same,Ca2+ release by RyR agonists vs A23187,[1],release roughly equivalent levels of Ca^2+ in these vesicles as that emptied by A23187
Hadrucalcin (from UniProt B8QG00),Kd,[2],14.8 nM
